In ChEMBL document CHEMBL1128982, “3-Hydroxy-quinolin-2-ones: Inhibitors of [3H]-glycine binding to the site associated with the NMDA receptor” (Bioorg Med Chem Lett, 1996):

Tests used:
Glutamate NMDA receptor = test: Displacement of [3H]-glycine from NMDA receptor of rat cortical membranes; format: cell membranes, Membrane
[1] = target: T1, Glutamate NMDA receptor (Rattus norvegicus) (UniProt P35439+Q00959+Q00960+Q00961+Q62645+Q8VHN2+Q9R1M7); test: Displacement of [3H]glycine from NMDA receptor of rat cortical membranes; format: cell membranes; design: concentration or dose not given beside the values; conditions: Membrane, concentration not given here
[2] = target: Glutamate receptor ionotropic, AMPA (Rattus norvegicus) (UniProt P19491+P19492+P19493+P19490); test: Displacement of [3H]AMPA from AMPA receptor of rat cortical membranes; format: cell membranes; design: concentration or dose not given beside the values; conditions: Membrane, concentration not given here
[3] = target: T1, Glutamate NMDA receptor (Rattus norvegicus); test: Compound was evaluated for its ability to displace [3H]-glycine from rat cortical membranes at concentration 10 uM for NMDA receptor

IC50 (Glutamate NMDA receptor) [nM]	inhibition [1] [%]	inhibition [2] [%]	Structure (SMILES)	also measured
1400			Oc1nc2ccccc2c(Cl)c1O	
	0		COc1ccc(NC(=O)c2c(O)c(O)nc3ccccc23)cc1OC	
62			CCOC(=O)c1c(O)c(O)nc2cc(Cl)cc(Cl)c12	
	40		O=C(NCc1ccccc1)c1c(O)c(O)nc2ccccc12	
	20		Oc1nc2ccc(Cl)c(Cl)c2c(Cl)c1O	
	11		CCOC(=O)/C=C/c1c(O)c(O)nc2ccccc12	
2800		41	Oc1nc2cc(Cl)cc(Cl)c2c(Br)c1O	
3800		15	CNC(=O)C(=O)c1c(O)c(O)nc2cc(Cl)cc(Cl)c12	
3000		2.6	COC(=O)C(=O)c1c(O)c(O)nc2ccccc12	
12000			CCOC(=O)C(=O)c1c(O)c(O)nc2ccccc12	
4500		48	Oc1nc2cc(Cl)cc(Cl)c2c(Cl)c1O	
	0		Oc1cc2c(Cl)c(Cl)ccc2nc1O	
	50		CCOC(=O)c1c(O)c(O)nc2ccccc12	
	60		O=C(O)c1c(O)c(O)nc2ccccc12	
29		56	CCOC(=O)C(=O)c1c(O)c(O)nc2cc(Cl)cc(Cl)c12	
760		40	O=C(Nc1ccccc1)C(=O)c1c(O)c(O)nc2cc(Cl)cc(Cl)c12	
	25		O=C(O)CCc1c(O)c(O)nc2ccccc12	
150		28	COC(=O)C(=O)c1c(O)c(O)nc2cc(Cl)cc(Cl)c12	
	29		Oc1cc2c(Cl)cc(Cl)cc2nc1O	
	38		CCOC(=O)c1c(O)c(O)nc2ccc(Cl)c(Cl)c12	
	43		CCOC(=O)c1c(O)c(O)nc2cc(Cl)c(Cl)cc12	
520		63	O=C(O)C(=O)c1c(O)c(O)nc2cc(Cl)cc(Cl)c12	
1800		31.9	O=C(O)C(=O)c1c(O)c(O)nc2ccccc12	
	43		O=C(O)/C=C/c1c(O)c(O)nc2ccccc12	
			CCOC(=O)c1c(OC)c(O)nc2cc(Cl)c(Cl)cc12	inhibition [3]: 0%
	23		Oc1nc2ccc(Cl)c(Cl)c2c(Br)c1O	
			CCOC(=O)c1c(OC)c(O)nc2ccccc12	inhibition [3]: 0%
	29		O=c1[nH]c2ccccc2cc1O	
			CCOC(=O)c1c(OC)c(O)nc2cc(Cl)cc(Cl)c12	inhibition [3]: 5%

Structure (SMILES)	IC50 (Glutamate NMDA receptor) [nM]	inhibition [1] [%]	inhibition [2] [%]	also measured
Oc1nc2ccccc2c(Br)c1O		59		
